Experimental data reported in patent publication US8147817B2, “IL-33 in the treatment and diagnosis of diseases and disorders” (The Brigham and Women's Hospital, Inc., priority 2006, dated 2012).
Entries after “also recorded” stand apart in the source; their conditions may differ.

Assays:
NF-κB [1] = assay: NF-κB nuclear binding activity by EMSA in cardiomyocytes; type: cell-based, rat; conditions: cardiomyocytes; angiotensin-II 1 μM, phenylephrine 50 μM, IL-33 10 ng/ml
Procedure: (§1) Electromobility shift assays were performed as described previously (8). Cells were lysed for 10 minutes on ice in a solution containing 10 mM HEPES (pH 7.6), 15 mM KCl, 2 mM MgCl2, 0.1 mM ethylenediamine tetraacetic acid (EDTA), 1 mM dithiothreitol (DTT), 0.5 mM phenylmethylsulphonylfluoride (PMSF), 10 μg/mL leupeptin and 0.2% Nonident P-40. Dishes were gently scraped, and nuclei were collected by centrifugation at 800 g for 30 seconds and then suspended in a solution of 50 mM HEPES, 400 mM KCl, 0.1 mM EDTA, 10% glycerol, 1 mM DTT, 0.5 mM PMSF and 10 μg/mL leupeptin. The mixture was incubated on ice for 30 minutes, and the supernatant was collected after centrifugation for 15 minutes at 400 g. Binding reactions were performed with 5 or 10 μg of nuclear protein in 10 mM Tris, 1 mM DTT, 1 mM EDTA, 5% glycerol, 0.1% Triton X-100, 1 mg poly(dIdC), 5 μg bovine serum albumin (BSA) and approximately 10,000 cpm of −32P-labeled oligonucleotide. The binding reactions for AP-1 activity also contained 5 mM MgCl2. Control reaction mixtures contained a 100-fold excess of unlabeled oligonucleotide and were incubated with nuclear extracts of IL-1β-treated cells. DNA complexes were separated on a 4% nondenaturing polyacrylamide gel in Tris-HCl (6.7 mM), EDTA (1 mM) and ammonium acetate (3.3 mM). The oligonucleotides contained the NF-B binding site (sequence: 5′-AGTTGAGGGGACTTTCCCAGGC-3′ (SEQ ID NO: 15)) and were labeled by standard procedures.
EMSAs were performed as described previously (47). Cells were lysed for 10 minutes on ice in 10 mM HEPES (pH 7.6), 15 mM KCl, 2 mM MgCl2, 0.1 mM EDTA, 1 mM DTT, 0.5 mM PMSF, 10 μg/mL leupeptin, and 0.2% Nonident P-40. Dishes were gently scraped, and nuclei were collected by centrifugation at 800 g for 30 seconds and then suspended in a solution of 50 mM HEPES, 400 mM KCl, 0.1 mM EDTA, 10% glycerol, 1 mM DTT, 0.5 mM PMSF, and 10 μg/mL leupeptin. The mixture was incubated on ice for 30 minutes, and the supernatant was collected after centrifugation for 15 minutes at 400 g. Binding reactions were performed with 5 or 10 μg of nuclear protein in 10 mM Tris, 1 mM DTT, 1 mM EDTA, 5% glycerol, 0.1% Triton X-100, 1 mg poly(dIdC), […] BSA, and 10,000 cpm of [^32P]-labeled oligonucleotide. The specific NF-κB consensus oligonucleotides were 5′-[…]-3′ (SEQ ID NO: 15) and 5′-[…]-3′ (SEQ ID NO: 18) (Promega). Positive and negative control mixtures as well as specific competition mixtures were made as recommended by the manufacturer's instructions, using binding buffer with positive samples, labeled NF-κB oligonucleotides and 10-fold excess of cold NF-κB consensus oligonucleotides for specific competition. DNA complexes were separated on a 6% nondenaturing polyacrylamide gel in Tris-HCl (6.7 mM), EDTA (1 mM), and ammonium acetate (3.3 mM).

NF-κB [2] = assay: NF-κB nuclear binding activity by EMSA in cardiac fibroblasts; type: cell-based, rat; conditions: angiotensin-II 1 μM, phenylephrine 50 μM, IL-33 10 ng/ml
Procedure: as §1
EMSAs were performed as described previously (47). Cells were lysed for 10 minutes on ice in 10 mM HEPES (pH 7.6), 15 mM KCl, 2 mM MgCl2, 0.1 mM EDTA, 1 mM DTT, 0.5 mM PMSF, 10 μg/mL leupeptin, and 0.2% Nonident P-40. Dishes were gently scraped, and nuclei were collected by centrifugation at 800 g for 30 seconds and then suspended in a solution of 50 mM HEPES, 400 mM KCl, 0.1 mM EDTA, 10% glycerol, 1 mM DTT, 0.5 mM PMSF, and 10 μg/mL leupeptin. The mixture was incubated on ice for 30 minutes, and the supernatant was collected after centrifugation for 15 minutes at 400 g. […]

cardiomyocytes = assay: Oxidative stress assay (DCFDA, ROS generation); type: cell-based, rat; conditions: DCFDA
Procedure: An assay to detect oxidative stress was performed as reported previously (48). Cardiomyocytes were incubated with 2,7-dichlorodihydrofluorecein diacetate (DCFDA) for 45 min, washed in phosphate-buffered saline, and fluorescence intensity was measured using a fluorometer (PerkinElmer Life Science) at 595 nm.

[3] = test system: rat neonatal cardiomyocytes; assay: [3H]-leucine incorporation assay (hypertrophy); type: cell-based; conditions: for hypertrophic response under angiotensin-II or phenylephrine: agent added without IL-33; for antihypertrophic effect of IL-33: under angiotensin-II or phenylephrine plus IL-33, agent added
Procedure: Leucine incorporation in rat neonatal cardiomyocytes was detected as previously described (7). Cells were pre-incubated with 1.0 μCi/mL [^3H]leucine for 24 hours. The medium was aspirated, and the cells were washed twice with ice-cold PBS and once with 10% trichloroacetic acid (TCA; Sigma) and fixed for 45 minutes at 4° C. with 10% TCA. After washing twice with cold 95% ethanol, radioactivity incorporated into the TCA-precipitable material was determined by liquid scintillation counting after solubilization in 0.15N NaOH.
Leucine incorporation in rat neonatal cardiomyocytes was detected as previously described (46). Cells were treated with 1.0 μCi/ml [^3H]-leucine for 24 hours, washed, fixed with 10% trichloroacetate (Sigma) for 45 minutes at 4° C., and then radioactivity was determined by liquid scintillation counting. An anti-mouse ST2 antibody (R&D) was used as a functional neutralizing antibody (12). A normal rat IgG2a (Sigma) and mouse IL-1Rrp2 (R&D) were used as controls for anti-mouse ST2 antibody (R&D) and mouse soluble ST2 (R&D), respectively.

NF-κB [4] = assay: NF-κB luciferase reporter assay in neonatal rat cardiomyocytes; type: cell-based; conditions: n=3
Procedure: Neonatal rat cardiomyocytes were transfected using Lipofectamine Plus (Invitrogen) with a luciferase reporter plasmid for NF-κB and with β-galactosidase, as described previously (47). After 48 hours of transfection, cells were then stimulated for an additional 24 hours, lysed and treated with Dual-Light assay system (Applied Biosystems, Foster City, Calif.), and analyzed using a luminometer (PerkinElmer Waltham, Calif.).

IL-33 = IL-33 gene expression by quantitative PCR in cardiomyocytes and cardiac fibroblasts; type: cell-based, rat; conditions: PMA 0.2 μM, angiotensin-II 0.1 μM, TNF-α 10 ng/ml, IL-1β 10 ng/ml
Procedure: mRNA expression was analyzed by quantitative PCR using the QuantiTect SYBR Green reverse transcription-PCR kit (QIAGEN, Valencia, Calif.) and the Light Cycler System (Roche Applied Science, Indianapolis, Ind.) as previously described (5). Total RNA was extracted from cells with TRI reagent, and 0.2 μg of RNA was analyzed. Sequences of PCR primers were as follows (5′ to 3′): […] (SEQ ID NO: 1) and […] (SEQ ID NO: 2) (IL-33); […] (SEQ ID NO: 3) and […] (SEQ ID NO: 4) (ANP); […] (SEQ ID NO: 5) and […] (SEQ ID NO: 6) (BNP); […] (SEQ ID NO: 7) and […] (SEQ ID NO: 8) (procollagen I); […] (SEQ ID NO: 9) and […] (SEQ ID NO: 10) (collagen III).
mRNA expression was analyzed by quantitative PCR using the QuantiTect SYBR Green reverse transcription-PCR kit (QIAGEN) and the Light Cycler System (Roche Applied Science) as previously described (45). Total RNA was extracted from cells with TRI reagent, and 0.2 μg of RNA was analyzed. Sequences of PCR primers were as follows (5′ to 3′): […] (SEQ ID NO: 1) and […] (SEQ ID NO: 2) (rat IL-33); […] (SEQ ID NO: 3) and […] (SEQ ID NO: 4) (rat ANP); […] (SEQ ID NO: 5) and […] (SEQ ID NO: 6) (rat BNP).

[5] = test system: rat neonatal cardiac fibroblasts; assay: sST2 and IL-33 secretion and free IL-33 in cardiac fibroblast conditioned media (Western, immunoprecipitation); type: cell-based
Procedure: Immunoprecipitation was performed as described previously (45) with some modifications. Briefly, after wash with PBS, protein G-agarose beads were presaturated with far excessive amount of sST2-Fc protein (R&D) at 4° C. overnight, washed 3 times with PBS. 1 ml of conditioned media in the presence and absence of separated preincubation with 20 μg of the sST2-Fc protein was then incubated with presaturated beads for 2 hours at room temperature.
(§2) Western analyses were performed as described previously (45). Membranes were incubated with primary antibodies overnight (anti-p44/42MAPK diluted 1:500; phospho-p44/42MAPK (Thr202/Tyr204) 1:1000; phospho-JNK (Thr183/Tyr185) 1:500; p38MAPK 1:500; phospho-p38MAPK (Thr180/Tyr182) 1:500; phospho-Akt (Ser473) 1:1000 and phospho-IκBα 1:1000, all from Cell Signaling, anti-mouse ST2L, from R&D 1:1000 and anti-IL-33 as described above, 1:500) at 4° C., detected with horseradish peroxidase-conjugated antibodies and enhanced chemiluminescence.

IκBα [6] = assay: IκBα phosphorylation by Western analysis in cardiomyocytes; type: cell-based, rat; conditions: cardiomyocytes
Procedure: as §2

IκBα [7] = assay: IκBα phosphorylation by Western analysis in cardiac fibroblasts; type: cell-based, rat
Procedure: as §2

[8] = increasing doses of PMA, 24 hrs

Compound: CNC[C@H](O)c1cccc(O)c1 [phenylephrine, reference compound]
- NF-κB activation by agent alone (NF-κB [1]): independently activated NF-κB in both cell types
- NF-κB activation by agent alone (NF-κB [2]): independently activated NF-κB in both cell types
- ROS generation by agonist alone (cardiomyocytes): significantly induced ROS generation

Compound: sST2: soluble form of ST2; mouse soluble ST2 (R&D); acts as decoy receptor for IL-33
- hypertrophic response under angiotensin-II or phenylephrine [3]: further augment the hypertrophic response; also recorded: trend toward increased amino acid uptake
- hypertrophic response under angiotensin-II or phenylephrine ([3]; listed as soluble ST2): further enhanced hypertrophy
- leucine uptake at baseline ([3]; agent alone, vs baseline or control protein): not affected
- antihypertrophic effect of IL-33 [3]: reversed the antihypertrophic effect of IL-33 in a dose-dependent manner
- antihypertrophic effect of IL-33 ([3]; listed as Soluble ST2): dose-dependently reversed the antihypertrophic effect of IL-33
- antihypertrophic effect of IL-33 ([3]; listed as soluble ST2): abolishes it; also recorded: the effects of IL-33 are abolished
- increase of NF-κB promoter activity (NF-κB [4]; angiotensin-II with IL-33 and sST2 co-treatment): 42+/−5%

Compound: IL-1β: cytokine stimulus, 10 ng/ml
- induction of IL-33 gene expression (IL-33): neither TNF-α (10 ng/ml) nor IL-1β (10 ng/ml) induced IL-33 gene expression

Compound: CCCCCCCCCCCCCC(=O)O[C@@H]1[C@@H](C)[C@@]2(O)[C@@H](C=C(CO)C[C@]3(O)C(=O)C(C)=C[C@@H]23)[C@@H]2C(C)(C)[C@]12OC(C)=O [PMA, phorbol 12-myristate 13-acetate]
- induction of IL-33 gene expression (IL-33): induced the expression of IL-33 in both cell types; also recorded: powerful inducer
- free (unbound) IL-33 [5, 8]: unbound IL-33 diminished; also recorded: dose-dependent decrease in free IL-33 level; also recorded: dose-dependently decreased free IL-33
- secretion of sST2 and total IL-33 [5, 8]: both sST2 and total IL-33 were induced; also recorded: dose-dependent robust induction in both sST2 and IL-33 protein expression; also recorded: dose-dependently increased secretion of both IL-33 (top) and sST2

Compound: angiotensin-II (DRVYIHPF; Angiotensin-2; UniProt P01019 25-32, looked up) [hypertrophic stimulus, angiotensin receptor agonist, reference compound]
- NF-κB activation by agent alone (NF-κB [1]): independently activated NF-κB in both cell types
- NF-κB activation by agent alone (NF-κB [2]): independently activated NF-κB in both cell types
- IκBα phosphorylation by agent alone (IκBα [6]): induced IκBα phosphorylation in both cell types
- IκBα phosphorylation by agent alone (IκBα [7]): induced IκBα phosphorylation in both cell types
- increase of NF-κB promoter activity (NF-κB [4]; angiotensin-II alone): 66+/−26%
- ROS generation by agonist alone (cardiomyocytes): significantly induced ROS generation
- induction of IL-33 gene expression (IL-33): induced the expression of IL-33 in both cell types

Compound: TNF-α
- induction of IL-33 gene expression (IL-33): neither TNF-α (10 ng/ml) nor IL-1β (10 ng/ml) induced IL-33 gene expression

Compound: sST2-Fc: sST2-Fc protein (R&D), recombinant ST2-Fc chimera protein
- free IL-33 in conditioned media after preincubation ([5]; 20 μg of sST2-Fc protein): removed free IL-33
